{"source": "patent US20070275871A1", "about": "(BIOREXIS TECHNOLOGY, INC., priority 2003, published 2007)", "origin": "cited, not measured here", "key": {"[1]": {"biological_target": "T1, extracellular domain of EPO receptor (Homo sapiens, UniProt P19235)", "T1 sequence (P19235 25-250 limits assumed)": "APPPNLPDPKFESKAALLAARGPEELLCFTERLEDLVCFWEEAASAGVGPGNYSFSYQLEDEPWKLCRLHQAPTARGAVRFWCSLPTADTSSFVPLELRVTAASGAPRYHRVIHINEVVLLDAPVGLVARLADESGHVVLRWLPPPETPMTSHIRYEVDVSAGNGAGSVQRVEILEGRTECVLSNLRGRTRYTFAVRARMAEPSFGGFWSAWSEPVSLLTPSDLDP"}, "[2]": {"system": "nascent red blood cell production", "conditions": "mice, two different in vivo assays of nascent red blood cell production"}, "[3]": {"system": "cell lines engineered to be responsive to EPO"}, "EPO receptor [4]": {"biological_target": "T2, EPO receptor (Homo sapiens, UniProt P19235)", "T2 sequence (P19235 25-508)": "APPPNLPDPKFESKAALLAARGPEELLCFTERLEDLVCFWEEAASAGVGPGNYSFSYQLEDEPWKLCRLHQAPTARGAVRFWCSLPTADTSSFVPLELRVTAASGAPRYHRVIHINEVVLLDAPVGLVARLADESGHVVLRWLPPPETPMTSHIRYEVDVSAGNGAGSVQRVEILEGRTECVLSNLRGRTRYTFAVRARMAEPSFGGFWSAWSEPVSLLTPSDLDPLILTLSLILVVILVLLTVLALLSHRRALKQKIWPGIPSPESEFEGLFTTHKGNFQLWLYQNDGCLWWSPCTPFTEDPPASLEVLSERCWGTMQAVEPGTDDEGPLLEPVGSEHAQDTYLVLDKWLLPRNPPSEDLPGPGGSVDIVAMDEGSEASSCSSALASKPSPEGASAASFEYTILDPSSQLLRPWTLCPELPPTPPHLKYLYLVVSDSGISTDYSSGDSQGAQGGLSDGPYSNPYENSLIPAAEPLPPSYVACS"}, "EPO receptor [5]": {"biological_target": "T2, EPO receptor", "conditions": "N- and C-terminal deletions of EMP-1"}}, "note": "Where two headings read alike, the source gives them in different places.", "data": [{"sequence": "CRIGPITWVC", "values": [{"measurement": "Kd", "setting": "[1]; EPO domain-weak-binding consensus sequence, read-out: Kd", "value": 10, "unit": "mM"}]}, {"sequence": "GGTYSCHFGPLTWVCKPQGG [EMP-1]", "values": [{"measurement": "erythropoietic effects", "setting": "[2]", "value": "significant erythropoietic effects"}, {"measurement": "cellular proliferation", "setting": "[3]", "value": "cause cellular proliferation"}, {"measurement": "cascade of phosphorylation events and cell cycle progression", "setting": "EPO responsive cells", "value": "induce a similar cascade of phosphorylation events and cell cycle progression"}, {"measurement": "Kd", "setting": "[1]; read-out: affinity (Kd)", "value": 0.0002, "unit": "mM"}, {"measurement": "competition with EPO in receptor binding assays", "setting": "EPO receptor [4]", "value": "competes with EPO"}]}, {"sequence": "YSCHFGPLTWVCK [EMP-20]", "values": [{"measurement": "activity in the assays for EPO mimetic action", "setting": "EPO receptor [5]", "value": "minimal active peptide"}]}]}
